Test system: bone marrow-derived macrophages (BMDM)
Test: In vitro macrophage polarization assay (RT-qPCR gene expression)
Assay type: cell-based, mice
Details: 0.5 mg/mL recombinant TSG6, 2 days, qPCR vs GAPDH, FIG. 3C
Excerpt: To determine if fibroblast secreted TSG-6 regulates the presence the distinct myeloid subsets between melanoma and pancreatic TME, the inventors performed receptor-ligand studies between the myeloid subsets and fibroblasts. First, the inventors analyzed the relative expression of TSG-6 and its binding partner CD44 in the fibroblasts and macrophage/neutrophil subsets. While TSG-6 was expressed slightly higher in the mT4 tumors as compared to B16F10 tumors, its ligand CD44 was primarily expressed in the macrophage/neutrophil subsets only in the mT4 tumors (FIG. 3A). To determine if this observation correlates with higher interactions between TSG-6 and suppressive myeloid subsets in the mT4 tumors, the inventors performed receptor-ligand interaction studies using CellChat analysis (PMID: 33597522). The analysis indicated strong communication probabilities of fibroblast expressed TSG-6 and myeloid CD44 interaction only in the mT4 tumors and not B16F10 tumors (FIG. 3B). To further evaluate whether TSG-6 regulates the immunosuppressive macrophage phenotype, the inventors performed an in vitro macrophage polarization assay. The inventors stimulated bone marrow-derived macrophages (BMDM) with either LPS or recombinant TSG-6 (rTSG-6) and observed that rTSG-6 increased the expression of Arg1, Mafb, Mrc1, and Vista in the macrophages and suppressed Ifng expression (FIG. 3C). Thus, the above data indicates TSG-6 interacts with suppressive intratumoral myeloid subsets and might have a role to play in resistance to ICT.
TSG-6 stimulated bone marrow derived macrophages (BMDM) and RT-qPCR Gene Expression: BMDM were isolated from the femurs of wild type C57/BL6 mice in ice cold complete RPMI 1640 media. Both epiphyses were removed before the bones were placed in sterile microfuge tubes and centrifuged at 500×g for 5 minutes at 4° C. to extrude the bone marrow. The collected bone marrow was homogenized by pipetting followed by RBC lysis. The single cell suspension of bone marrow cells obtained, was counted in an automated Vicell cell counter before 2.0e6 cells/well were cultured in Iscove's Modified Dulbecco's Medium (IMDM) supplemented with 10% FBS and 10 ng/ml Macrophage colony-stimulating factor (M-CSF) (Biolegend, Cat #576404)) in a 12 well plate. On Day 3, cells were resuspended in fresh growth media and on Day 7, cells were subjected to fresh complete IMDM containing 100 ng/ml LPS (InvivoGen, Cat #tlrl-eblps) and 0.5 mg/mL recombinant TSG6 (R&D Systems, Cat #2326-TS-050) and left in culture for 2 days. Supernatants were removed and adhered macrophages were subjected to Accutase cell detachment solution following manufacturers protocol (Innovative Cell Technologies, 07920). Macrophages were resuspended and centrifuged at 350×g for 8 minutes. Cell pellets were lysed with 350 uL buffer RLT lysis buffer (Qiagen, 74104) supplemented with B-ME and subjected to RNA extraction using RNA mini extraction kit (Qiagen, 74104). cDNA was synthesized using the NEB LunaScript RT SuperMix Kit (E3010L) and 30 ng of total cDNA was used for each 20 uL qPCR reaction. Taqman gene expression Real-Time PCR assays were run using manufacturers protocol and gene targets were compared to GAPDH housekeeping expression (GAPDH, Mm05724508_g1; IFNg, Mm01168134_m1; Mrc1, Mm01329359_m1; Arg1, Mm00475988_m1; Mafb, Mm00627481_s1, VISTA, Mm00472312_m1).

With “rTSG-6: recombinant TSG6 protein, R&D Systems, Cat #2326-TS-050” the Ifng expression was “suppressed”, the “expression of Arg1” value was “increased” and the “expression of Mafb” value was “increased”. For the same substance, the “expression of Mrc1” value was “increased” and the “expression of Vista” value was “increased”.

— patent publication US20250377365A1, “METHODS INVOLVING DETECTING TNF STIMULATED GENE 6 (TSG-6) FOR IMPROVING ANTI-TUMOR RESPONSES TO IMMUNE THERAPY IN CANCER PATIENTS” (BOARD OF REGENTS, THE UNIVERSITY OF TEXAS SYSTEM, priority 2022, published 2025)
